Source: patent US12377044B2, “Method and device for transdermal delivery of parathyroid hormone using a microprojection array” (Panther Life Sciences Corporation, priority 2010, dated 2025)

Experiment: clinical
Conditions: female, human, in vivo, sc, 20 ug
Description: The microprojection array described herein was used to administer transdermally hPTH (1-34) to healthy human subjects. As a comparator, hPTH (1-34) was also administered subcutaneously to a healthy group of human subjects.
In this study, a microprojection array was prepared as detailed in Example 9 and inserted into an applicator-array assembly to form a transdermal delivery system, as described in Example 10. […] The delivery system was designed to deliver a systemic dose of hPTH (1-34) across the stratum corneum barrier layer of the skin upon activation of the applicator to deploy an array of microstructures causing the array of microstructures to penetrate the stratum corneum. In this study, two dose levels were administered via the transdermal delivery system, 32 μg hPTH (1-34) and 64 μg hPTH (1-34) (32 μg hPTH (1-34)×2). Subjects received these doses by applying the transdermal microneedle delivery system MicroCor® device containing the indicated amount of hPTH in the distal tips of the microneedles in the array to an abdominal site, and leaving the device in place for five (5) minutes. The comparator treatment (the commercial hPTH product known as Forteo®) was subcutaneously administered via injection into the abdominal wall at a dose of 20 μg. Blood samples were drawn at designated times and analyzed for hPTH concentration. […]

A half-life of 52 min was found for `CC[C@H](C)[C@H](NC(=O)[C@H](CCC(=O)O)NC(=O)[C@H](CO)NC(=O)[C@@H](NC(=O)[C@@H](N)CO)C(C)C)C(=O)N[C@@H](CCC(N)=O)C(=O)N[C@@H](CC(C)C)C(=O)N[C@@H](CCSC)C(=O)N[C@@H](Cc1cnc[nH]1)C(=O)N[C@@H](CC(N)=O)C(=O)N[C@@H](CC(C)C)C(=O)NCC(=O)N[C@@H](CCCCN)C(=O)N[C@@H](Cc1cnc[nH]1)C(=O)N[C@@H](CC(C)C)C(=O)N[C@@H](CC(N)=O)C(=O)N[C@@H](CO)C(=O)N[C@@H](CCSC)C(=O)N[C@@H](CCC(=O)O)C(=O)N[C@@H](CCCN=C(N)N)C(=O)N[C@H](C(=O)N[C@@H](CCC(=O)O)C(=O)N[C@@H](Cc1c[nH]c2ccccc12)C(=O)N[C@@H](CC(C)C)C(=O)N[C@@H](CCCN=C(N)N)C(=O)N[C@@H](CCCCN)C(=O)N[C@@H](CCCCN)C(=O)N[C@@H](CC(C)C)C(=O)N[C@@H](CCC(N)=O)C(=O)N[C@@H](CC(=O)O)C(=O)N[C@H](C(=O)N[C@@H](Cc1cnc[nH]1)C(=O)N[C@@H](CC(N)=O)C(=O)N[C@@H](Cc1ccccc1)C(=O)O)C(C)C)C(C)C` [hPTH (1-34), human Parathyroid hormone (1-34)] in this work.
